Source: patent US20230285570A1, “THERAPEUTICALLY USEFUL CURE-PRO MOLECULES FOR E3 LIGASE MEDIATED DEGRADATION OF PROTEINS, AND METHODS OF MAKING AND USING THEM” (CORNELL UNIVERSITY, priority 2020, published 2023)
Entries after “also recorded” stand apart in the source; their conditions may differ.

How the values were obtained:
Format in all cases: cell-based
[1] = target: T1, BRD4 (Homo sapiens, UniProt O60885); assay: Summary of BRD4 degradation by CURE-PRO pairs, estimated from Western Blot or WES; parameters: endogenous in cells; details: for Degradation of BRD4, combination with MDM2 ligand 8314: Table 2, aryl-boronic acid BRD4 ligand + 8314
Procedure: (§1) Namalwa, Ramosm HeLa, MCF7, or HT29 HCT116 cells (2.5-3×10^6) were treated for 24 hours with the indicated compounds solubilized in DMSO. The cells were washed in ice-cold PBS and were then lysed in RIPA lysis buffer (150 mM NaCl, 5 mM EDTA, 1% NP-40, 0.5% sodium deoxycholate, 0.1% SDS, 50 mM Tris, pH 8.0.) with Roche protease inhibitor complete cocktail and phosphatase inhibitors (10 mM sodium fluoride, 10 mM sodium pyrophosphate, 1 mM sodium orthovanadate and 20 mM β-glycerophosphate). The total protein concentrations were determined by Bradford Protein Assay (Pierce) and 10-20 μg of protein was loaded onto 4-15% Tris-Glycine gradient gels (Biorad). After standard gel electrophoresis, the separated proteins were transferred to PVDF membrane by wet transfer. The immunoblots were then blocked for 1 hour in 5% skim milk in TBST or 5% BSA in TBST, according to manufacturer's instructions, before an overnight incubation at 4° C. with indicated antibodies and membranes. Membranes were then incubated with the appropriate horseradish peroxidase-conjugated secondary antibodies (1:5,000 dilution) for 1 h at room temperature and the bands were visualized using the Clarity Max Western ECL Substrate (Biorad) and the ChemiDoc Imaging System (Biorad). Signal was detected with ECL Western Blotting Substrate (Pierce) and X-ray film processed with a Konica SRX-101 X-ray film processor or captured by Bio-Rad's Chemidoc Imaging system.
(§2) WES Simple analysis was performed on WES system (ProteinSimple-Biotechne) according to the manufacturer's instructions. Total protein concentrations of cell lysates were determined by the Pierce BCA kit (Thermo Fisher). 3 μL of 0.3 μg/μL of the protein lysate was loaded onto a 12- to 230-kDa WES assay plate (ProteinSimple) where 300 nL sample was withdrawn through a capillary, subjected to electrophoretic separation of proteins by size, and followed by the simultaneous, HRP-based detection of proteins using the Anti-Rabbit Detection Module (Proteinsimple: #DM-001). The electropherograms were checked then the automatic peak detection was manually corrected if it was required.
(§3) A black check mark indicates efficacy of 30% to 70% or higher protein degradation.

[2] = target: T1, BRD4; assay: CURE-PRO-mediated BRD4 degradation in HCT116 cells, WES (ProteinSimple); parameters: endogenous in cells; details: 1 μM-10 μM each
Procedure: (§4) All cell lines were purchased from ATCC or DSMZ and grown at 37° C. with 5% CO2. Human HeLa cells were cultured in complete growth medium (Dulbecco's modified Eagle's medium (DMEM) supplemented with 10% FBS); MCF7 cells were cultured in complete growth medium (Dulbecco's modified Eagle's medium (DMEM) supplemented with 10% FBS and 0.01 mg/ml human recombinant insulin (Sigma Aldrich); Namalwa and Ramos cells were cultured in complete growth medium (RPMI 1640 medium supplemented with 10% FBS); HCT116 and HT29 cells were cultured in complete growth medium (McCoy's 5a Medium supplemented with 10% FBS). For cellular degradation of BRD4 studies cells were seeded in a 12-well plate at 70-80% confluency, allowed to attach overnight, and incubated with the indicated compounds for the indicated time. When indicated, a 15-minute pretreatment with 10 μM pomalidomide, 10 μM VHL298, 10 μM Nutlin3a, 1 μM MG-132 or 1 μM Carfilzomib was performed before the addition of CURE-PROs. For washout studies, after CURE-PRO treatment, media was aspirated and incubated with complete medium for the indicated time before lysis.
as §2
(§5) HCT116 cells (3×10^6) were treated for 24 hours with the compounds solubilized in DMSO. Compounds were added at 1 μM-10 μM each. Standardized protein samples were electrophoresed and imaged as described in the WES ProteinSimple section above. FIGS. 59, 60, and 61 depict the concentration-dependence of CURE-PRO-mediated BRD4 degradation using MDM2 ligands.
as §5, with “62” for “59, 60,”, “63” for “61”
HCT116 cells (3×10^6) were treated for 24 hours with the compounds solubilized in DMSO. CURE-PRO monomers were added at 10 μM each and the proteasomal inhibitors at 1 μM. Standardized protein samples were electrophoresed and imaged as described in the WES ProteinSimple section above. FIG. 68 depicts the dependence of the proteasome for CURE-PRO-mediated BRD4 degradation.

[3] = target: T1, BRD4; assay: CURE-PRO-mediated BRD4 degradation in HeLa cells, Western blot; parameters: endogenous in cells; host or cells: HeLa; details: 24 h; for BRD4 degradation: 10 μM each
Procedure: as §4, §1
HeLa cells (2.5×10^6) were treated for 24 hours with the sample compounds solubilized in DMSO. Compounds were added at 1-10 μM each. Standardized protein samples were electrophoresed and imaged as described in the immunoblotting description above. FIGS. 6-18 depicts the CURE-PRO-mediated BRD4 degradation for BRD monomers (JQ1 derivatives comprising of catechol linkers), and CRBN ligands, 8048 and 8049 (pomalidomide derivatives comprising boronic acid linkers) combined in a 1:1 ratio.
HeLa cells (2.5×10^6) were treated for 24 hours with the compounds solubilized in DMSO. The compounds were added at 10 μM each. Standardized protein samples were electrophoresed and imaged as described in the immunoblotting section above. FIGS. 23-27 depicts the CURE-PRO-mediated BRD4 degradation for BRD monomers (JQ1 derivatives comprising of boronic acid linkers), and CRBN ligands, 8046, 8047 and 8066 (pomalidomide derivatives comprising diol linkers) combined in a 1:1 ratio.
HeLa cells (2.5×10^6) were treated for 24 hours with the compounds solubilized in DMSO. Compounds were added at 10 μM and 100 μM each. Standardized protein samples were electrophoresed and imaged as described in the immunoblotting section above.
HeLa cells (2.5×10^6) were treated for 24 hours with the compounds solubilized in DMSO. Compounds were added at 1 nM-1 μM each. […]

[4] = target: T2, c-MYC (Homo sapiens, UniProt P01106); assay: CURE-PRO-mediated c-MYC degradation in HT29 cells, Western blot; parameters: endogenous in cells; host or cells: HT29
Procedure: as §1
HT29 cells (2.5×10^6) were treated for 24 h with the compounds solubilized in DMSO. Compounds were added at 10 nM-10 μM each, as indicated in the description of the figures. Standardized protein samples were electrophoresed and imaged as described in the immunoblotting section above. c-MYC monomers (10058-F4 derivatives comprising catechol linkers), and CRBN ligands, 8048 and 8049 (pomalidomide derivatives comprising boronic acid linkers) combined in a 1:1 ratio.
HT29 cells (2.5×10^6) were treated for 24 h with the compounds solubilized in DMSO. Compounds were added at 100 nM-10 μM each.
(§6) HT29 cells (2.5×10^6) were treated for 24 h with the compounds solubilized in DMSO. Compounds were added at 100 nM-10 μM each. Standardized protein samples were electrophoresed and imaged as described in the immunoblotting section above. c-MYC monomer, MYC-E1, (a 10058-F4 derivative comprising boronic acid linkers), and CRBN ligands, 8046, 8047 and 8066 (pomalidomide derivatives comprising diol linkers) combined in a 1:1 ratio.
as §6, with “monomers, MYC-E6 (FIG. 90), MYC-E10 (FIG. 91), and MYC-E16 (FIG. 92) (10074-G5 derivatives” for “monomer, MYC-E1, (a 10058-F4 derivative”
(§7) HT29 cells (2.5×10^6) were treated for 24 h with the compounds solubilized in DMSO. Compounds were added at 10 nM-10 μM each. Standardized protein samples were electrophoresed and imaged as described in the immunoblotting section above. c-MYC monomer, MYC-N16 (FIG. 93) (10074-G5 derivatives comprising diol linkers), and VHL ligands, 8297 and 8298 (VH-298 derivatives comprising boronic acid linkers) were combined in a 1:1 ratio.
as §7, with “monomers, MYC-E7” for “monomer, MYC-N16”, “96), MYC-E10 (FIG. 97), and MYC-E17 (FIG. 98),” for “93)”, “boronic acid” for “diol”, “diol” for “boronic acid”

[5] = target: T2, c-MYC; assay: Summary of C-MYC degradation by CURE-PRO pairs, estimated from Western Blot or WES; parameters: endogenous in cells; host or cells: HT29
Procedure: as §1, §2, §3

[6] = 1:1 with MDM2 ligand 8313, HCT116, 24 h
[7] = 1:1 with MDM2 ligand 8314, HCT116, 24 h
[8] = 1:1 with CRBN ligand 8048, HT29, 24 h, 10 nM-10 μM each
[9] = c-MYC monomer alone, HT29, 24 h, 10 nM-10 μM

T2 sequence (P01106 whole entry): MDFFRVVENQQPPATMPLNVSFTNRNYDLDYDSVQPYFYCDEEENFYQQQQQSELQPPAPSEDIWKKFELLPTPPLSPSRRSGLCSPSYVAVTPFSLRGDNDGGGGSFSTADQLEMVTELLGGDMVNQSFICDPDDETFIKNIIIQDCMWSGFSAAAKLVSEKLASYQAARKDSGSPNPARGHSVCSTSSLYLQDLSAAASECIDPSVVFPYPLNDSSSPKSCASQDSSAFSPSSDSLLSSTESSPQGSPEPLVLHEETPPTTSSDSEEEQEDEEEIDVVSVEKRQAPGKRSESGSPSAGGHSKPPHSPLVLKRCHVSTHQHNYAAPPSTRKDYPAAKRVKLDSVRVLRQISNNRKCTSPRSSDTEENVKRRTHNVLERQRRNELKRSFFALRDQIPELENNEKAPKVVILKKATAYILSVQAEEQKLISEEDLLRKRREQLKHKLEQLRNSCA

Question: With COc1ccc2c(c1)C(c1ccc(Cl)cc1)=N[C@@H](CC(=O)NCCCCCNC(=O)c1cccc(B(O)O)c1)c1nnc(C)n1-2 [BRD-E8] as the compound, how does the “Degradation of BRD4, combination with CRBN ligand 8046” value ([1]; Table 1, aryl-boronic acid BRD4 ligand + 8046) read?
Answer: √ (A black check mark indicates efficacy of 30% to 70% or higher protein degradation)

Question: What about the “Degradation of BRD4, combination with CRBN ligand 8066” value ([1]; Table 1, aryl-boronic acid BRD4 ligand + 8066) of the same compound?
Answer: √ (A black check mark indicates efficacy of 30% to 70% or higher protein degradation)

Question: What about the “Degradation of BRD4, combination with MDM2 ligand 8314” value [1] of the same compound?
Answer: √ (A black check mark indicates efficacy of 30% to 70% or higher protein degradation)

Question: And the BRD4 degradation [2, 6]?
Answer: had no effect on BRD4 protein levels

Question: What about the BRD4 degradation [2, 7] of the same compound?
Answer: caused partial loss of the BRD4 protein; also recorded: Degradation is observed

Question: What about the “concentration-dependent BRD4 degradation” value ([3]; 1:1 with CRBN ligand 8046, HeLa, 1 nM-1 μM each) of the same compound?
Answer: Degradation is observed at 100 nM and 1 μM

Question: What about the BRD4 expression ([3]; BRD monomer alone, HeLa, 1 nM-1 μM) of the same compound?
Answer: no change in expression is observed

Question: And the BRD4 degradation ([3]; co-treated 1:1 with CRBN ligand 8046, HeLa)?
Answer: causes degradation of BRD4; also recorded: Degradation is noted

Question: What about the BRD4 degradation ([3]; co-treated 1:1 with CRBN ligand 8066, HeLa) of the same compound?
Answer: causes degradation of BRD4; also recorded: Degradation is noted

Question: For COc1ccc2c(c1)C(c1ccc(Cl)cc1)=N[C@@H](CC(=O)NCCc1ccc(B(O)O)cc1)c1nnc(C)n1-2 [BRD-E14, (4-(2-(2-((4S)-6-(4-chlorophenyl)-8-methoxy-1-methyl-4H-benzo[f][1,2,4]triazolo[4,3-a][1,4]diazepin-4-yl)acetamido)ethyl)phenyl)boronic acid], which “Degradation of BRD4, combination with CRBN ligand 8047” value ([1]; Table 1, aryl-boronic acid BRD4 ligand + 8047) is on record?
Answer: √ (A black check mark indicates efficacy of 30% to 70% or higher protein degradation)

Question: And the “Degradation of BRD4, combination with MDM2 ligand 8314” value [1]?
Answer: √ (A black check mark indicates efficacy of 30% to 70% or higher protein degradation)

Question: What about the “Degradation of BRD4, combination with VHL ligand 8305” value ([1]; Table 3, aryl-boronic acid BRD4 ligand + 8305) of the same compound?
Answer: √ (A black check mark indicates efficacy of 30% to 70% or higher protein degradation)

Question: What about the BRD4 degradation [2, 6] of the same compound?
Answer: had no effect on BRD4 protein levels

Question: What about the BRD4 degradation [2, 7] of the same compound?
Answer: caused partial loss of the BRD4 protein; also recorded: Degradation is observed

Question: What about the BRD4 degradation ([3]; co-treated 1:1 with CRBN ligand 8047, HeLa) of the same compound?
Answer: causes degradation of BRD4; also recorded: Degradation is noted

Question: CCc1ccc(/C=C2\SC(=O)N(CC[C@H]3C[C@@H]4C[C@H]3[C@@H](O)[C@H]4O)C2=O)cc1 [MYC-N23] was tested. Which c-MYC degradation [4, 8] did it give?
Answer: caused c-MYC degradation

Question: And the c-MYC degradation [4, 9]?
Answer: there is no degradation of c-MYC

Question: And the “Degradation of C-MYC, combination with CRBN ligand 8049” value ([5]; Table 10, aromatic 1,2-diol MYC ligand + 8049)?
Answer: √ (A black check mark indicates efficacy of 30% to 70% or higher protein degradation)

Question: Which c-MYC degradation [4, 8] does the source give for CCc1ccc(/C=C2\CC(=O)N(CCNC(=O)[C@H]3C[C@@H]4C[C@H]3[C@@H](O)[C@H]4O)C2=O)cc1 [MYC-N29] here?
Answer: caused c-MYC degradation

Question: What about the c-MYC degradation [4, 9] of the same compound?
Answer: there is no degradation of c-MYC

Question: And the “Degradation of C-MYC, combination with CRBN ligand 8048” value ([5]; Table 10, aromatic 1,2-diol MYC ligand + 8048)?
Answer: √ (A black check mark indicates efficacy of 30% to 70% or higher protein degradation)
